ChEMBL document CHEMBL4043062, “Recent developments in the isolation, biological function, biosynthesis, and synthesis of phenazine natural products” (Bioorg Med Chem, 2017)
In brackets after ≈: the same amount, converted by molar mass.

Test system: Mycobacterium tuberculosis
Assay: Antitubercular activity against rifampicin-resistant Mycobacterium tuberculosis ATCC 35338 harboring His-526-Tir mutation in rpoB gene after 7 days by Resazurin microtitre assay
Format: functional

In the case of `C=CCC1Cc2c(c3ccccc3c3nc4ccccc4nc23)OC1(C)C` (stereo unspecified), the MIC is reported as 2.2 µM (≈ 0.78 µg/mL).
